Experimental data: a melting point compilation (Tetko et al.; mined from patent text by program, amines drawn as free bases though some values may be those of a salt)

Point of comparison: `CCOC(=O)C(C(C)=O)C(CC(=O)c1ccccc1)c1ccc(OC)c(OC)c1` (stereo unspecified), melting point 135 °C. Against it:
- Cc1ccccc1C(=O)P1(=O)Oc2ccccc2-c2ccccc21 (stereo unspecified) — lower, 102 to 104 °C
- NC(CC(=O)O)c1ccccc1[N+](=O)[O-] (stereo unspecified) — higher, 222 °C
- O=C(O)[C@H](Cc1cccc(OC(F)(F)C(F)F)c1)[C@@H](O)c1ccnc(F)c1 (racemic) — not separable, 134 to 135 °C
- COC(=O)COc1ccc(F)c2c1c1c(n2Cc2ccccc2)CCCC1C(N)=O (stereo unspecified) — higher, 183 to 185 °C
- CCOc1ccc(-c2ccc3c(c2)C=C(C(=O)Nc2ccc(CCl)cc2)CCO3)cc1 — higher, 187 to 189 °C
- c1ccc(COc2ccc(OCC3CO3)cc2)cc1 (stereo unspecified) — lower, 68 °C
- CCCCCCCCCCCCCCOc1ccc(C(=O)Nc2ccccc2)cc1 — lower, 124 to 126 °C
- COc1ccc2cc(C=NNC(N)=O)ccc2c1 — higher, 218 to 219 °C
- CSC1C(=O)Nc2c(C(=O)c3ccc(F)cc3)cccc21 (stereo unspecified) — higher, 165 to 168 °C
- NC(=O)Cc1ccc2c(c1)Cc1c-2[nH]c(=O)c2nccn12 — higher, > 260 °C
- Cc1ccc(S(=O)(=O)OCCc2cccs2)cc1 — lower, 30 °C
- CCCc1c(OCCCOc2c(C(C)=O)ccc(OCC(=O)O)c2CCC)ccc(C(C)=O)c1O — lower, 124 to 125 °C
- CN(C)C(=O)c1cc(-c2nccs2)[nH]c1C(CC1CCOCC1)c1ccc(S(=O)(=O)C2CC2)cc1 (stereo unspecified) — higher, 180 to 182 °C
- Cc1cc(CC=CCO)c(O)c2c1NC(=O)C2(C)C — higher, 174 °C
- OCc1ccc(Cc2ccccc2CO)cc1 — lower, 102 °C
- CCCCCCCCOc1ccc(C(N)=O)c(O)c1 — lower, 123 to 124 °C
- O=Cc1ccc(-c2ccccc2)c(Cl)c1 — lower, 70 to 72 °C
- COc1cc(OC)nc(Sc2c(NS(=O)(=O)CC#N)nc(C)n2C)n1 — higher, 223 to 225 °C
- CCCc1c(S)ccc2c(=O)cc(C(=O)OC)oc12 — lower, 98 to 99 °C
- CNC(=O)c1cc(Oc2ccc(NC(=O)Nc3ccc4c(c3)C(F)(F)OC(F)(F)O4)c(S(C)(=O)=O)c2)ccn1 — higher, 222 to 224 °C
- CC1(C)C(=O)N(c2ccc([N+](=O)[O-])c(C(F)(F)F)c2)C(=O)N1CCCCCN1C(=O)N(c2ccc([N+](=O)[O-])c(C(F)(F)F)c2)C(=O)C1(C)C — higher, 163 to 164 °C
- CCN(CC)c1ccc(-n2c(C(F)(F)F)nn(C)c2=S)cn1 — lower, 96 to 98 °C
- CN1CCN(c2ccc(/C=C/C(=O)CC(=O)/C=C/c3ccc4cc[nH]c4c3)cc2)CC1 — lower, 65 to 77 °C
- Nc1nccnc1C(=O)N1CCCC1 — lower, 100 to 105 °C
- CCOC(=O)N1CCN(c2ccc(C3=NNC(=O)CC3C)cc2N)CC1 (stereo unspecified) — higher, 193 to 195 °C
- CC(=O)c1c(C)[nH]c(-c2ccc(Cl)cc2)c1N — higher, 205 to 208 °C
- CC(C)c1nc(-c2ccccc2)n(-c2ccc(F)cc2)c1C=C(Br)Br — higher, 164 to 165 °C
- CC(=O)N1C=C(c2ccccc2)NC(=O)C1C(C)C (racemic) — higher, 182 to 185 °C
- CCOC(=O)Cc1csc(Sc2ccc(OCc3nc(-c4ccccc4)oc3C)cc2)n1 — lower, 95 to 96 °C
- CCCCc1nc(O)c(CC(=O)OCC)c(O)n1 — higher, 260 °C
- Cc1cnc(CNC(=O)CCc2cnoc2-c2ccc(Cl)cc2)cn1 — lower, 124 to 125 °C
- CCOP(=O)(CC(=O)O)CC(Cc1ccccc1)NS(=O)(=O)c1ccc(C)cc1 (stereo unspecified) — lower, 110 to 112 °C
- O=S1(=O)NC(C2CCCCC2)=Nc2cccc(-c3ccccn3)c21 — higher, 200 to 203 °C
- O=C(O)c1cccnc1NCCSCc1nccs1 — lower, 133 to 134 °C
- O=C(Nc1ccc(F)cc1)NN1CC=C(c2ccccc2)CC1 — higher, 200 to 212 °C
- COc1ccc(CNC(=O)c2cc3c(=O)n(CC#Cc4ccccc4)c(=O)n(C)c3s2)cc1 — higher, 168 to 171 °C
- O=S(=O)(CCCCl)c1ccc(Cl)cc1 — lower, 69 to 72 °C
- Nc1c(C=O)c(=O)n(-c2ccccc2)c(=O)n1-c1ccccc1 — higher, 141 to 142 °C
- CCN(CC)c1ccc(-c2cc(-c3ccc(C(=O)O)cc3)ccc2OCCCO)cc1C — higher, 208 °C
- CCOC(=O)CCNC(=O)N(CCCO)c1ccc(-c2ccc(C#N)cc2)cc1 — lower, 102 to 104 °C
- Cc1[nH]cc2c1-c1ccc(Cl)cc1C(c1ccccc1F)=NC2 — higher, 226 to 227 °C
- CC(C)c1cc(-c2ccc(F)c3ccc(F)cc23)nc(N)n1 — lower, 103 to 105 °C
- COc1cc(Nc2c(C#N)cnc3cc(-c4ncccc4CN4CCOCC4)ccc23)c(Cl)cc1Cl — higher, 151 to 154 °C
- COCCc1nc2c(N)nc3ccccc3c2n1CCOc1ccccc1 — higher, 171 to 174 °C
- Cc1nnc(-c2ccccc2F)n2nc(OCc3ncnn3C)c(-c3ccsc3)c12 — lower, 124 to 129 °C
- O=C1C2CC=C(SC3=CCC4C(=O)N(c5ccccc5)C(=O)C4C3)CC2C(=O)N1c1ccccc1 (stereo unspecified) — higher, 212 to 217 °C
- Cc1noc(C)c1-c1cn(Cc2ccccc2)c(=O)c2cnccc12 — higher, 174 to 177 °C
- CC(=O)c1ccc2cc(C(C)Br)ccc2c1 (stereo unspecified) — lower, 64 to 66 °C
- NNC(=O)c1ccccc1CS(N)(=O)=O — higher, 221 to 222 °C
- CNC(=O)c1ccc(Nc2nc(Nc3cc4c(cc3OC)CCN(C(COC)COC)CC4)ncc2Cl)c(OC)c1 — lower, 85 to 97 °C
- CC(=O)N(C)C(Cc1ccccc1N)c1ccccn1 (stereo unspecified) — lower, 103 to 107 °C
- COc1cc(OC)c2c(=O)c(OCCCOc3ccc(C(C)=C4SC(=O)NC4=O)cc3)c(-c3ccc(OC)c(OC)c3)oc2c1 — higher, 198 to 200 °C
- C/C=C/c1cc2c(s1)[C@@H](OC(C)=O)[C@H](OC(C)=O)C[C@]2(OC(C)=O)C(=O)OC — higher, 140 to 143 °C
- COc1cc(CSCCNC(=O)c2c(Cl)cccc2Cl)cc(OC)c1 — lower, 46 to 47 °C
- CCOC(=O)Cn1c(-c2cccc(Cl)c2)nc2cccnc21 — lower, 98 to 99.8 °C
- COc1cc(NC(=O)C2C(=O)N(C)C(=O)N(C)C2=O)ccc1Oc1nnc(C(C)(C)C)s1 — higher, 178 to 179 °C
- Cc1cc(-c2nn(C(C)c3oc4ccccc4c(=O)c3-c3cccc(F)c3)c3ncnc(N)c23)ccn1 (stereo unspecified) — higher, 266 to 268 °C
- COc1cc2c(c(C(=O)c3ccccc3)c1)NC(=O)C2 — higher, 154 °C
- CCNc1ccc(Cl)cc1C(=O)c1ccccc1 — lower, 57 to 58 °C
- O=C1NC(=S)SC1=Cc1ccc2c(c1)N(Cc1cccc(-c3ccncc3)c1)C(=O)CO2 — higher, 297 to 299 °C
- CC(c1noc(C(F)F)n1)N1C(=O)C2(COc3cc4c(cc32)OCO4)c2c(Cl)cccc21 (stereo unspecified) — higher, 179 to 182 °C
- CCc1ccc(Nc2nc3cc(NC(=O)c4ccc([N+](=O)[O-])cc4Cl)ccc3o2)cc1 — higher, > 250 °C
- O=C1c2ccccc2C(=O)N1N1C2CCCCC21 (stereo unspecified) — lower, 75 to 77 °C
- COc1ccc(N=Nc2ccc(O)c(C(N)=O)c2)cc1 — higher, 231 to 233 °C
- Nc1ccc(C(=O)c2ncco2)c(Cl)c1 — lower, 92 to 94 °C
- CC1N=C(c2ccccc2Cl)c2cc([N+](=O)[O-])ccc2N(C)C1=O (single isomer, unassigned; (+)) — higher, 156 to 158 °C
- COC1CN(c2ccc(N3C[C@H](CNC(C)=O)OC3=O)cc2F)C1 — higher, 160 to 162 °C
- Cc1cc(CON2C(=O)c3ccccc3C2=O)on1 — lower, 129 to 131 °C
- CC(C)(C)OC(=O)CN1CCN(c2ccnc(C#N)c2)C1=O — higher, 139 to 140 °C
- Cc1cc(Oc2ccc(Cl)c(C(F)(F)F)c2)ncc1[N+](=O)[O-] — lower, 75 to 80 °C
- CC(=O)n1c(=O)oc2c3ncccc3ccc21 — higher, 192 to 193 °C
- O=C(O)c1cc(-n2c(-c3ccccc3)cc3c4ccccc4ccc32)ccc1O — higher, 242 °C
- CC(=O)NC[C@H]1CN(c2ccc(C3CCN(c4nnc(C)s4)CC3)c(F)c2)C(=O)O1 — higher, 193 to 195 °C
- C=CCc1cc2c(cc1O)CCC(=O)N2CC=Cc1ccccc1 — higher, 199 to 203 °C
- COc1ccc(S(=O)(=O)C(Cc2ccccc2)C(=O)NO)cc1 (stereo unspecified) — higher, 180 °C
- Clc1ccc(-c2nnc(CSCCOc3ccccc3)o2)cn1 — lower, 113 to 115 °C
- Oc1cccc2c1ccn2CCCCCc1ccccc1 — lower, 109 to 110 °C
- Cc1nnc2c3c(c(Cl)nn12)C1CCC3CC1 — higher, 178 to 179 °C
- CC(C)(O)Cn1c(CO)nc2c(N)nc3cc(-c4cncc(CO)c4)cnc3c21 — higher, 149 to 151 °C
- COc1cc(C(C)=O)cc(OC)c1O[Si](C)(C)C(C)(C)C — lower, 90 to 92 °C
- CN1CC(=O)Nc2ccc(C#N)cc2C1=O — higher, 256 to 258 °C
- CCCC(=O)Nc1cccc2c1C(=O)N(C1CCC(=O)NC1=O)C2=O (stereo unspecified) — higher, 171 to 173 °C
- O=C1N(C/C=C/C=C/c2ccccc2Cl)CCN1c1cccnc1 — lower, 130 to 133 °C
- CCOCCOC(=O)C1=C(C)N(COCC)C(C)=C(C(=O)OCCOCC)C1c1cccc([N+](=O)[O-])c1 — lower, 63 to 63.5 °C
- S=C1NCSc2ccsc21 — higher, 136 to 138 °C
- O=C(O)C(=O)N1CCC(Oc2ccc(Cl)cc2)CC1 — higher, 144 to 145 °C
- Cc1nc(C(=O)O)cnc1Cl — lower, 116 to 117 °C
- Nc1cc(O)c2c(c1)C(=O)c1cccc(O)c1C2=O — higher, 250 to 252 °C
- COC(=O)c1sc(C)cc1N1N=C2c3cc(C)sc3SCC2CC1=O (stereo unspecified) — higher, 164 to 166 °C
- CCOCn1c(Sc2ccc(Cl)c(Cl)c2)c(Br)c(C#N)c1-c1ccc(Cl)cc1 — lower, 105 to 107 °C
- N#CC(C#N)=Cc1ccccc1F — lower, 117 to 118 °C
- NC(=O)c1nc2n(n1)-c1ccc(Cl)cc1C(c1ccccc1)=NC2 — higher, 252 to 254 °C
- O=Cc1ccc(O)c(NC(=O)CCl)c1 — higher, 190 to 192 °C
- O=c1cc(-c2ccoc2)c2ccc(O)cc2o1 — higher, 229 to 232 °C
- Cc1[nH]c2cccc3c2c1CC1C3CC(N)CN1C (stereo unspecified) — higher, 240 °C
- O=C(NCCO[N+](=O)[O-])c1cnc(C(F)(F)F)s1 — lower, 76 to 78 °C
- COC(=O)C1(C)Cc2c(OC)ccc(OC)c2CO1 (stereo unspecified) — lower, 73 to 74.5 °C
- COc1ccc(C(=O)Nc2ccccc2)cc1NS(=O)(=O)c1ccc(C#N)cc1 — higher, 206 to 208 °C
- COc1ccc2[nH]c(=O)n(S(=O)(=O)c3ccc(Cl)cc3)c(=O)c2c1 — higher, 192 to 194 °C
- Cc1cccc(-c2nc(N)sc2-c2ccnc(-c3ccc(C(=O)NC4CCOCC4)cc3)c2)n1 — higher, 230 to 232 °C
